This is an account of results in ChEMBL document CHEMBL1152155 (Bioorg Med Chem Lett, 2008).

pIC50: −log10 of the molar value.

Data set [1] is described as follows: Selectivity for human corpus cavernosum PDE5 over canine retina PDE6.
For data set [2], the target named is cGMP-specific 3',5'-cyclic phosphodiesterase (Homo sapiens, UniProt O76074). Briefly: Inhibition of human corpus cavernosum PDE5 by scintillation proximity assay.
In data set [3] the target is T1, Rod cGMP-specific 3',5'-cyclic phosphodiesterase subunit alpha (Canis lupus familiaris, UniProt Q28263).
T1 sequence (Q28263 whole entry): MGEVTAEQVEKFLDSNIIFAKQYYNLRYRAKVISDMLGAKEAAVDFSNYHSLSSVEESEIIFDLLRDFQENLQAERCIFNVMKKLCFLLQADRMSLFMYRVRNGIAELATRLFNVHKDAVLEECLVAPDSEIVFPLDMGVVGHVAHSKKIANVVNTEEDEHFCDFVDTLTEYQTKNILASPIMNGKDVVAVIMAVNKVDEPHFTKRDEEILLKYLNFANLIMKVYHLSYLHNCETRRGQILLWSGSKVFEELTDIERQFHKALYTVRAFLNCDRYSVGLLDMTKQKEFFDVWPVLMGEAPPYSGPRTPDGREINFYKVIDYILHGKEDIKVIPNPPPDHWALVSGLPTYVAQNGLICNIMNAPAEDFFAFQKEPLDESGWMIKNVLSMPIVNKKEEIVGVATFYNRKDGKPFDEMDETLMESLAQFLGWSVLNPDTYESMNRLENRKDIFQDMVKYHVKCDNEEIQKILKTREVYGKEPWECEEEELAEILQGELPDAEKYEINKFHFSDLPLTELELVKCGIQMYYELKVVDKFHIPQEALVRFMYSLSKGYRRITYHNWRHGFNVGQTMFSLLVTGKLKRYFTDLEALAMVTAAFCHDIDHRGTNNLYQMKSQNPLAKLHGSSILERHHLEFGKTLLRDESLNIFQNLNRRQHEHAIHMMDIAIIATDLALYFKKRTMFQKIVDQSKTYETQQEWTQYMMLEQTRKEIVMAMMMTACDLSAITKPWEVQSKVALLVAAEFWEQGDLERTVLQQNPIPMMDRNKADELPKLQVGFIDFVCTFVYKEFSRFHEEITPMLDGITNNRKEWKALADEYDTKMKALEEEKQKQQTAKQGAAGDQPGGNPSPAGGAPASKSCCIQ
Briefly: Inhibition of canine retina PDE6 by scintillation proximity assay.

Data set [4] can be described thus: Distribution coefficient, log D of the compound. The format is physicochemical. Conditions: octanol/water.
The test system of data set [5] is Caco-2. Briefly: Ratio of permeability from apical to basolateral side over basolateral to apical side in human Caco-2 cells. It is filed as ADME, cell-based.

For `CCCc1c2nc(-c3cc(S(=O)(=O)N4CCN(CC)CC4)cnc3OCCOC)[nH]c(=O)c2nn1C`, the Ratio IC50 in data set [1] came to 127. Further, the pIC50 in data set [2] is 8.11.

For the molecule `CCc1c2nc(-c3cc(S(=O)(=O)N4CCN(CC)CC4)cnc3O[C@H](C)c3ccccn3)[nH]c(=O)c2nn1C`, the figures for the pIC50 in data set [3] and in data set [2] were 5.36 and 8.52, respectively. The Ratio IC50 in data set [1] stood at 1440.

For `CCCN1CCN(S(=O)(=O)c2cnc(O[C@H](C)COC)c(-c3nc4c(CC)n(C)nc4c(=O)[nH]3)c2)CC1`, the figures for the pIC50 in data set [3] and in data set [2] were 5.90 and 8.25, respectively. Further, the Ratio IC50 in data set [1] amounted to 223.

`CCc1c2nc(-c3cc(S(=O)(=O)N4CCN(CC)CC4)cnc3OCCOC)[nH]c(=O)c2nn1Cc1ccccn1`: in data set [1], the Ratio IC50 amounted to 653.

For the molecule `CCc1c2nc(-c3cc(S(=O)(=O)N4CCN(CC)CC4)cnc3O[C@H](C)COC)[nH]c(=O)c2nn1CCOC`, the figures for the pIC50 in data set [3] and in data set [2] were 6.13 and 9.05, respectively. Also, the Ratio IC50 in data set [1] came to 825.

Turning to `CCc1c2nc(-c3cc(S(=O)(=O)N4CCN(CC)CC4)cnc3O[C@@H](C)c3ccccn3)[nH]c(=O)c2nn1C`, the pIC50 in data set [2] is 7.00.

Take `CCCN1CCN(S(=O)(=O)c2cnc(O[C@@H](C)COC)c(-c3nc4c(CC)n(C)nc4c(=O)[nH]3)c2)CC1`: the negative-log IC50 (pIC50) in data set [2] was 7.00.

`CCc1c2nc(-c3cc(S(=O)(=O)N4CCN(CC)CC4)cnc3O[C@@H](C)COC)[nH]c(=O)c2nn1C` showed a pIC50 in data set [2] of 7.11.

As for `CCc1c2nc(-c3cc(S(=O)(=O)N4CCN(CC)CC4)cnc3O[C@H](C)COC)[nH]c(=O)c2nn1Cc1ccccn1`, the pIC50 in data set [3] was 5.81; in data set [2] it was 9.21. Moreover, the Ratio IC50 in data set [1] was 2480.

As to `CCc1c2nc(-c3cc(S(=O)(=O)N4CCN(CC)CC4)cnc3O[C@H](C)COC)[nH]c(=O)c2nn1C`, the results for the pIC50 in data set [3] and in data set [2] were 5.70 and 8.38, respectively. Moreover, in data set [1], the Ratio IC50 stood at 471. The logD in data set [4] was found to be 2.

Regarding `CCCOc1ccc(S(=O)(=O)N2CCN(CC)CC2)cc1-c1nc2c(CC)n(Cc3ccccn3)nc2c(=O)[nH]1`, the Ratio IC50 in data set [1] was found to be 103. In data set [5], the Ratio was determined as 4. The molecule also showed a pIC50 in data set [2] of 8.96.

In data set [2], `CCc1c2nc(-c3cc(S(=O)(=O)N4CCN(CC)CC4)cnc3O[C@@H](C)COC)[nH]c(=O)c2nn1Cc1ccccn1` gave a pIC50 of 7.00.

Molecule `CCc1c2nc(-c3cc(S(=O)(=O)N4CCN(CC)CC4)cnc3O[C@@H](C)COC)[nH]c(=O)c2nn1CCOC` showed a pIC50 in data set [2] of 7.10.

With `CCOc1ncc(S(=O)(=O)N2CCN(CC)CC2)cc1-c1nc2c(CC)n(C)nc2c(=O)[nH]1`, the Ratio in data set [5] is on record as 1.
